Measured values from US10231954B2, “Neurodegenerative therapies” (LYTIX BIOPHARMA AS, priority 2014, dated 2019).
Like-named read-outs stand apart in the source and are kept apart here.

Key:
Format in all cases: biochemical
MNK2 = MNK2 (Homo sapiens, UniProt Q9HBH9); assay: Kinase profiling MNK2; conditions: for remaining activity at 100 µM: read-out: residual kinase activity, MNK2
Description: (§1) Any value less that 25 is considered to be highly significant inhibition.

TTBK1 = TTBK1 (Homo sapiens, UniProt Q5TCY1); assay: Kinase profiling TTBK1; conditions: for remaining activity at 100 µM: read-out: residual kinase activity, TTBK1
Description: as §1

NEK2a = molecular target: T1, NEK2a (Homo sapiens, UniProt P51955); assay: Kinase profiling NEK2a; conditions: for remaining activity at 100 µM: read-out: residual kinase activity, NEK2a
T1 sequence (P51955 1-445): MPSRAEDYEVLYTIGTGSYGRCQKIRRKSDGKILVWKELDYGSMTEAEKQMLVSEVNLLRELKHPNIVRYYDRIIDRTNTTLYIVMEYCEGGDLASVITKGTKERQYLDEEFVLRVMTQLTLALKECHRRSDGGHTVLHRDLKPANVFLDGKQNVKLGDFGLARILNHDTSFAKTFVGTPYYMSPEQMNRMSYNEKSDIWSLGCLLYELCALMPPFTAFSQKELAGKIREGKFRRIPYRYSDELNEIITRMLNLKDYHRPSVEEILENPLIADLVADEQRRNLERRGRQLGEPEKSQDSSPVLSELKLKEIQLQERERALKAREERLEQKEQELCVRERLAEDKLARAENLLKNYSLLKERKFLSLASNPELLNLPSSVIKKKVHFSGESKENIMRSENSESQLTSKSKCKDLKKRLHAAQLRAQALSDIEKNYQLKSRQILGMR
Description: as §1

HIPK1 = HIPK1 (Homo sapiens, UniProt Q86Z02); assay: Kinase profiling HIPK1; conditions: for remaining activity at 100 µM: read-out: residual kinase activity, HIPK1
Description: as §1

PAK5 = PAK5 (Homo sapiens, UniProt Q9P286); assay: Kinase profiling PAK5; conditions: for remaining activity at 100 µM: read-out: residual kinase activity, PAK5
Description: as §1

MST3 = MST3 (Homo sapiens, UniProt Q9Y6E0); assay: Kinase profiling MST3; conditions: for remaining activity at 100 µM: read-out: residual kinase activity, MST3
Description: as §1

WNK1 = WNK1 (Homo sapiens, UniProt Q9H4A3); assay: Kinase profiling WNK1; conditions: for remaining activity at 100 µM: read-out: residual kinase activity, WNK1
Description: as §1

YES1 = YES1 (Homo sapiens, UniProt P07947); assay: Kinase profiling YES1; conditions: for remaining activity at 100 µM: read-out: residual kinase activity, YES1
Description: as §1

ABL = ABL (Homo sapiens, UniProt P00519); assay: Kinase profiling ABL; conditions: for remaining activity at 100 µM: read-out: residual kinase activity, ABL
Description: as §1

ZAP70 = molecular target: T2, ZAP70 (Homo sapiens, UniProt P43403); assay: Kinase profiling ZAP70; conditions: for remaining activity at 100 µM: read-out: residual kinase activity, ZAP70
T2 sequence (P43403 1-619): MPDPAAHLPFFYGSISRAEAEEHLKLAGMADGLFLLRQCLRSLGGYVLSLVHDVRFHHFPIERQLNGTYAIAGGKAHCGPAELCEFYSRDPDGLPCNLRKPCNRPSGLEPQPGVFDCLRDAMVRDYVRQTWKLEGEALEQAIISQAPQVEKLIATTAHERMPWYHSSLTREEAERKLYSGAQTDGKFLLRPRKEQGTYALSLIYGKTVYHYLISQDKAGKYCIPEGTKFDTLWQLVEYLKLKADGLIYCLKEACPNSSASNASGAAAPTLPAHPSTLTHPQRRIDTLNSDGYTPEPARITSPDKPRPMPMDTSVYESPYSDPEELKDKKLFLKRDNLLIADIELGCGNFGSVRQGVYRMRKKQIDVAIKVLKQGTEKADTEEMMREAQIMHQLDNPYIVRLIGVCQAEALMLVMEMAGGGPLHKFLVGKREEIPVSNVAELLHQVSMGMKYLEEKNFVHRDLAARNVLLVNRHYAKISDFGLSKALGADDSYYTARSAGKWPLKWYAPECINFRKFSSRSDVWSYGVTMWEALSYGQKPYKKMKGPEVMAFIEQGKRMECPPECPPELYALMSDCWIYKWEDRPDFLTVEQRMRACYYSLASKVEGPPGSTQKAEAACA
Description: as §1

FGF-R1 = FGF-R1 (Homo sapiens, UniProt P11362); assay: Kinase profiling FGF-R1; conditions: for remaining activity at 100 µM: read-out: residual kinase activity, FGF-R1
Description: as §1

MAP4K3 = molecular target: T3, MAP4K3 (Homo sapiens, UniProt Q8IVH8); assay: Kinase profiling MAP4K3; conditions: 100 micromolar inhibitor concentration, 100 is no change; for remaining activity at 100 µM: read-out: residual kinase activity, MAP4K3
T3 sequence (Q8IVH8 1-894): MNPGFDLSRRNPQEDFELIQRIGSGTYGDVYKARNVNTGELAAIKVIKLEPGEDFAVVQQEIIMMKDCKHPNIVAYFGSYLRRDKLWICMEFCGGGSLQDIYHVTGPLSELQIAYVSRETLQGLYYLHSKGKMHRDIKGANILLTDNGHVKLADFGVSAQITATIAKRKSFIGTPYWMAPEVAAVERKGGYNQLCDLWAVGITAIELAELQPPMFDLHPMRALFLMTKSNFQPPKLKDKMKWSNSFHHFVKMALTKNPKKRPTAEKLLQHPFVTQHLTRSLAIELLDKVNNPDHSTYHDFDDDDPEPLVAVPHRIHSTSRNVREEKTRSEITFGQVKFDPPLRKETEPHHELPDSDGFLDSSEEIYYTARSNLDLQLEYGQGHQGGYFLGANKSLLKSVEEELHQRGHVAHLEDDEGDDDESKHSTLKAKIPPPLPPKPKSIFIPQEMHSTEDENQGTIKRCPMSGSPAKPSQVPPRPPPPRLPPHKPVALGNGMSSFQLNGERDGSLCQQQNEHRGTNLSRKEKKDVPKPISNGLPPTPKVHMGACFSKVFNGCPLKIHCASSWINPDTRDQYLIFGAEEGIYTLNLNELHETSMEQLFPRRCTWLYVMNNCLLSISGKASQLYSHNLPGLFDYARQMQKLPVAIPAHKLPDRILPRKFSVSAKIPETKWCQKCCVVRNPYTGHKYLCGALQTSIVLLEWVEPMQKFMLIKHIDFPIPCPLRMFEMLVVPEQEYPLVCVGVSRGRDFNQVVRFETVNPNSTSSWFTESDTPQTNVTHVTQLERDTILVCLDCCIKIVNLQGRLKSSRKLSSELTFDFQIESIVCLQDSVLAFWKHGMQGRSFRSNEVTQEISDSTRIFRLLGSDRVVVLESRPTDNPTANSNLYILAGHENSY
Description: as §1

[1] = 100 micromolar inhibitor concentration, 100 is no change

Chain of PAK5 (Q9P286 whole entry): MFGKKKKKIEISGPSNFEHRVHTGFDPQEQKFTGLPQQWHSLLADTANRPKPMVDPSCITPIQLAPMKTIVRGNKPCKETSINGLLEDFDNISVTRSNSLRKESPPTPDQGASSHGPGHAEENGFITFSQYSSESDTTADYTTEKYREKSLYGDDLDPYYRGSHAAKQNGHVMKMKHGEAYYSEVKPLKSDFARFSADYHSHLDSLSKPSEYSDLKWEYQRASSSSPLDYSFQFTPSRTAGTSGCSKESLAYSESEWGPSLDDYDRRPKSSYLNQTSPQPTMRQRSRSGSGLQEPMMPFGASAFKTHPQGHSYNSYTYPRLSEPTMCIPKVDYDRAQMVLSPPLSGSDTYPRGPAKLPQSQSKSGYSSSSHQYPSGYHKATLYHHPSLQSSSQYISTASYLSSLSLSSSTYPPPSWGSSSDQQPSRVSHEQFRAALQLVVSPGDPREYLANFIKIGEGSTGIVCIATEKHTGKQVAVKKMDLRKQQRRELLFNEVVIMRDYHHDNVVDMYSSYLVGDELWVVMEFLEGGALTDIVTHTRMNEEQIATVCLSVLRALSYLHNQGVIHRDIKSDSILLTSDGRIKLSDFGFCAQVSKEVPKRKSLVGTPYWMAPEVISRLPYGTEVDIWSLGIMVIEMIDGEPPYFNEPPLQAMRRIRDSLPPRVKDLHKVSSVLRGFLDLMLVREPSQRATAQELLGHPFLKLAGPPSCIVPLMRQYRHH
Chain of ABL (P00519 whole entry, species assumed): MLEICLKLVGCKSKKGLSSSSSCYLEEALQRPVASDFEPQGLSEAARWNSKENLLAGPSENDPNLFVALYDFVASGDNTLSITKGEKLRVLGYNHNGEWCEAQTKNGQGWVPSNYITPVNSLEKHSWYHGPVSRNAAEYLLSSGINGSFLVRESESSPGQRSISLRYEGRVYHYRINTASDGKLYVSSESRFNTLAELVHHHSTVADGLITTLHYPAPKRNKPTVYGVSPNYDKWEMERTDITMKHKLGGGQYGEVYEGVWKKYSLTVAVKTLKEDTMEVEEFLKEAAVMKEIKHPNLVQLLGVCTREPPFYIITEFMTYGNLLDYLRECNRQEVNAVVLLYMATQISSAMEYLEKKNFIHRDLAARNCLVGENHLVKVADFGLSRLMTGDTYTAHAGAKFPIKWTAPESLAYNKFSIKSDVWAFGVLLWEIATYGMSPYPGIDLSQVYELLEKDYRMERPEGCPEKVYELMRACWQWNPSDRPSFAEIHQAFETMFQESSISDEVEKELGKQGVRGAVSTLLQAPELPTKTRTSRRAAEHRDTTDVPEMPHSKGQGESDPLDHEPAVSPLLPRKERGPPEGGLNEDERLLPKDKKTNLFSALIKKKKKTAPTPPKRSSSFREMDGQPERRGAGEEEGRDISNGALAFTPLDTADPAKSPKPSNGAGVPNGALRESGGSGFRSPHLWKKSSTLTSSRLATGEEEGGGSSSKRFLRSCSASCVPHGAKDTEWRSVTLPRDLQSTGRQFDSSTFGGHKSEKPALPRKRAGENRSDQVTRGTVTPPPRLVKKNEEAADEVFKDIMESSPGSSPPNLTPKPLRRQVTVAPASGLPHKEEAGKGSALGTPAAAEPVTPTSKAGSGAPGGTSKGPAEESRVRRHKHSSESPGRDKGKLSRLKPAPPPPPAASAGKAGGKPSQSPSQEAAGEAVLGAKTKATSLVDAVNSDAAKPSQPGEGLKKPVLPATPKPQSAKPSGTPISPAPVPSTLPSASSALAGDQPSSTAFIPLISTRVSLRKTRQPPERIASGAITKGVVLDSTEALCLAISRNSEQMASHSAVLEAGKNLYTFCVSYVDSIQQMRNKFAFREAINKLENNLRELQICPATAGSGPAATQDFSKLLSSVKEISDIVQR
Chain of WNK1 (Q9H4A3 whole entry, species assumed): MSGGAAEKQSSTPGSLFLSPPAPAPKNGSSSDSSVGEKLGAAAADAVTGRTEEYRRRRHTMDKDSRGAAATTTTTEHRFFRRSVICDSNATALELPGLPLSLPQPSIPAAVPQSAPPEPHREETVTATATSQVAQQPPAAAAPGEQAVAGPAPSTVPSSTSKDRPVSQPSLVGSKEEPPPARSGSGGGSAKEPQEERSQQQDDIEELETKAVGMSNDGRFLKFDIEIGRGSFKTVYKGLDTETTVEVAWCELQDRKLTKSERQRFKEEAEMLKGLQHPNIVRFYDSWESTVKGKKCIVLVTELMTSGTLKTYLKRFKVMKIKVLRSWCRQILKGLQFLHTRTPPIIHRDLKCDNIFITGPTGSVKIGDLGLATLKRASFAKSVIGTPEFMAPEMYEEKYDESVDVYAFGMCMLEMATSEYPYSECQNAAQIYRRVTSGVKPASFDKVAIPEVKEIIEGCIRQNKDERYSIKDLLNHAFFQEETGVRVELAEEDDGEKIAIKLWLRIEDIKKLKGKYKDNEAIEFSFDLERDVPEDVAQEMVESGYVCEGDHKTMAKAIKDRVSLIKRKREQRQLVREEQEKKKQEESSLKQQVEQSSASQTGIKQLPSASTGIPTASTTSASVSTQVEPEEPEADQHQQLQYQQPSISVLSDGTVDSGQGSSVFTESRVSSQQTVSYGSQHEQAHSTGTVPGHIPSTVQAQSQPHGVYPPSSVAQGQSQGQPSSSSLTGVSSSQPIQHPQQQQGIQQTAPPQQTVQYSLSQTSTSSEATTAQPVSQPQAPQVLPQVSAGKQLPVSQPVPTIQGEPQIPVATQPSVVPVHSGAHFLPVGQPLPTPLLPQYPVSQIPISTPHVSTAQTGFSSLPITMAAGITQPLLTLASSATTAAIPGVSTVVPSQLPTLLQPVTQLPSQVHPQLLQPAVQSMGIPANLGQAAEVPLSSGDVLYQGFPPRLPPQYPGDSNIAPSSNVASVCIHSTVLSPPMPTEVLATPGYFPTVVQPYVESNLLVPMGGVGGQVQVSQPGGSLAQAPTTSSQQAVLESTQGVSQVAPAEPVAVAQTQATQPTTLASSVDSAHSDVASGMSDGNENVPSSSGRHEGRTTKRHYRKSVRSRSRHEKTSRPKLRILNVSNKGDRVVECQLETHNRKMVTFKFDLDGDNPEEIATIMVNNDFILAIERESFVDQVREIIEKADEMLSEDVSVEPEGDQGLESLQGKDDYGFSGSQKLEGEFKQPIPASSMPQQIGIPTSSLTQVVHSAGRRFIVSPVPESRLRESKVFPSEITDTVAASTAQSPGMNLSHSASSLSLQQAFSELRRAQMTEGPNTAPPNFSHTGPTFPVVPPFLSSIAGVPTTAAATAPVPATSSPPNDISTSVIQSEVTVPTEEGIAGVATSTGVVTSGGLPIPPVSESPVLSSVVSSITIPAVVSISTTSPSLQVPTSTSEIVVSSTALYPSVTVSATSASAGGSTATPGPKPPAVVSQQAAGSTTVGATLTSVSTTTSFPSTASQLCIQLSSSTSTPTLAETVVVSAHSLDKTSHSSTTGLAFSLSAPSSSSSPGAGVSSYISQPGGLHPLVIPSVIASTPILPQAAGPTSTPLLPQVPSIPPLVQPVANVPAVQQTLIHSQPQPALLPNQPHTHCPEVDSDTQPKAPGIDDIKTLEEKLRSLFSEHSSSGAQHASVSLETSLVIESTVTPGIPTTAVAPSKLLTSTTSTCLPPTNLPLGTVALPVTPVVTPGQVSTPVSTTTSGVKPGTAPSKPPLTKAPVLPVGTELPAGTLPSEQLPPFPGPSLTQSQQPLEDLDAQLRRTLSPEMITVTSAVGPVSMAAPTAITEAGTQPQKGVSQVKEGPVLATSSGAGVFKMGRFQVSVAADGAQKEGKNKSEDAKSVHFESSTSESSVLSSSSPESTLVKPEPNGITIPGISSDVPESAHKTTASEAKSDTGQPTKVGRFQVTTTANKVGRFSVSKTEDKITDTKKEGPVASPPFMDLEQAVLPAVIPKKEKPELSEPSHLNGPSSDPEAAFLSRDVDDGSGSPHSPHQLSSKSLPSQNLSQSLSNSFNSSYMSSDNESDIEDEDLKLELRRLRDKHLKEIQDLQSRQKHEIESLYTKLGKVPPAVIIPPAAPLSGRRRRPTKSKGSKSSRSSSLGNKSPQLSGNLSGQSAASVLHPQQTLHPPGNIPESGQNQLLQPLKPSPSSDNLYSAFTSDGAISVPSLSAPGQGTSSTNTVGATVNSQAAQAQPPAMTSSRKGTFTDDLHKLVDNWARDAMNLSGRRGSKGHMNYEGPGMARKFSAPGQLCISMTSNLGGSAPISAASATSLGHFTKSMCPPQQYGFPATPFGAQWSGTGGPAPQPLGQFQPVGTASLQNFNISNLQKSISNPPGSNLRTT
Chain of YES1 (P07947 whole entry, species assumed): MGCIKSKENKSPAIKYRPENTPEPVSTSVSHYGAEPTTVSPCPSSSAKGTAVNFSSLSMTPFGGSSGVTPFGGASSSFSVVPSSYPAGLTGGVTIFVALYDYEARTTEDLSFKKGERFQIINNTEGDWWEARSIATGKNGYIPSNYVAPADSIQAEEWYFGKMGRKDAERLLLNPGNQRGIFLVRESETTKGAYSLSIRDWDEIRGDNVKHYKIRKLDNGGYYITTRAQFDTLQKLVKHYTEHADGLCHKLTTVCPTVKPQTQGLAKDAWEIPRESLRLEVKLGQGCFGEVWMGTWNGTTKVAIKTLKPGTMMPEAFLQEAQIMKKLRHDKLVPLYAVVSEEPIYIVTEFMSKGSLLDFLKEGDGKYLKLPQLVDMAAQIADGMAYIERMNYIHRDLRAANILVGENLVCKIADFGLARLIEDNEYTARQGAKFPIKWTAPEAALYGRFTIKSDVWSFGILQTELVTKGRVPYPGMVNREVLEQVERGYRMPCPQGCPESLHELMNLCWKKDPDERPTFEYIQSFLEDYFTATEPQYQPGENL

| SMILES | remaining activity at 100 µM (MNK2; [1]) [%] | remaining activity at 100 µM (TTBK1; [1]) [%] | remaining activity at 100 µM (NEK2a; [1]) [%] | remaining activity at 100 µM (HIPK1; [1]) [%] | remaining activity at 100 µM (PAK5; [1]) [%] | remaining activity at 100 µM (MST3; [1]) [%] | remaining activity at 100 µM (WNK1; [1]) [%] | remaining activity at 100 µM (YES1; [1]) [%] | residual kinase activity, MNK2 (MNK2; [1]) | residual kinase activity, TTBK1 (TTBK1; [1]) | residual kinase activity, NEK2a (NEK2a; [1]) | residual kinase activity, HIPK1 (HIPK1; [1]) | residual kinase activity, PAK5 (PAK5; [1]) | residual kinase activity, MST3 (MST3; [1]) | residual kinase activity, MAP4K3 (MAP4K3) | residual kinase activity, WNK1 (WNK1; [1]) | residual kinase activity, YES1 (YES1; [1]) | residual kinase activity, ABL (ABL; [1]) | residual kinase activity, ZAP70 (ZAP70; [1]) | residual kinase activity, FGF-R1 (FGF-R1; [1]) | further results |
| --- | --- | --- | --- | --- | --- | --- | --- | --- | --- | --- | --- | --- | --- | --- | --- | --- | --- | --- | --- | --- | --- |
| CC(=O)Nc1nc2cc(O)ccc2s1 [Compound 01-66, N-(5-hydroxybenzo[d]thiazol-2-yl)acetamide] | – | – | – | – | – | – | – | – | – | – | – | – | – | – | – | – | – | – | – | – | remaining activity at 100 µM (MNK2): 33%; remaining activity at 100 µM (TTBK1): 68%; remaining activity at 100 µM (NEK2a): 85%; remaining activity at 100 µM (HIPK1): 97%; remaining activity at 100 µM (PAK5): 72%; remaining activity at 100 µM (MST3): 79%; remaining activity at 100 µM (WNK1): 101%; remaining activity at 100 µM (YES1): 72%; remaining activity at 100 µM (ABL): 29%; remaining activity at 100 µM (ZAP70): 113%; remaining activity at 100 µM (FGF-R1): 67% |
| CC(=O)Nc1nc2cc(F)ccc2s1 [Compound 03-77] | 86 | 80 | 90 | 40 | 111 | 87 | 99 | 85 | – | – | – | – | – | – | – | – | – | – | – | – | remaining activity at 100 µM (MAP4K3): 55%; remaining activity at 100 µM (ABL; [1]): 86%; remaining activity at 100 µM (ZAP70; [1]): 109%; remaining activity at 100 µM (FGF-R1; [1]): 103% |
| CC(=O)Nc1nc2cc(C)ccc2s1 [Compound 03-76] | – | – | – | – | – | – | – | – | 81 | 84 | 95 | 53 | 107 | 85 | 80 | 104 | 104 | 82 | 110 | 106 | – |
| O=C(Nc1nc2ccc(O)cc2s1)c1cccnc1 [Compound 08-44] | – | – | – | – | – | – | – | – | 36 | 47 | 74 | 43 | 88 | 76 | 56 | 99 | 74 | 58 | 79 | 56 | – |
| O=C(Nc1nc2ccc(O)cc2s1)c1ccccn1 [Compound 03-12] | – | – | – | – | – | – | – | – | 66 | 91 | 92 | 47 | 94 | 85 | 54 | 91 | 73 | 113 | 91 | 16 | – |
| CC(=O)Nc1nc2ccccc2s1 [Compound 03-32] | – | – | – | – | – | – | – | – | 91 | 80 | 90 | 62 | 74 | 87 | 90 | 98 | 93 | 86 | 111 | 12 | – |
| CC(=O)Nc1nc2cc(C(F)(F)F)ccc2s1 [Compound 03-73] | 96 | 94 | 94 | 74 | 85 | 89 | 128 | 108 | – | – | – | – | – | – | – | – | – | – | – | – | remaining activity at 100 µM (MAP4K3): 63%; remaining activity at 100 µM (ABL; [1]): 109%; remaining activity at 100 µM (ZAP70; [1]): 115%; remaining activity at 100 µM (FGF-R1; [1]): 109% |
| CC(=O)Nc1nc2ccc(O)cc2s1 [Compound 01-71] | 34 | 61 | 75 | 76 | 85 | 66 | 96 | 59 | – | – | – | – | – | – | – | – | – | – | – | – | remaining activity at 100 µM (ABL; [1]): 17%; remaining activity at 100 µM (ZAP70; [1]): 126%; remaining activity at 100 µM (FGF-R1; [1]): 42% |
